Experimental data as given in PMC8226574, “Action of Carvacrol on Parascaris sp. and Antagonistic Effect on Nicotinic Acetylcholine Receptors” (Pharmaceuticals, 2021).
Entries after “also recorded” stand apart in the source; their conditions may differ. Where two headings read alike, the source gives them in different places.

What was measured:
[1] = molecular target: Parascaris sp. ACR-16 N-AChR (Parascaris equorum, UniProt A0A3S9VMQ8); experiment: Two-electrode voltage-clamp on Parascaris sp. ACR-16 N-AChR expressed in Xenopus oocytes; assay type: cell-based; details: for reduction of ACh maximal response amplitude: p < 0.05
Method: (§1) Parascaris sp. ACR-26/27 M-AChR as well as Parascaris sp. and A. suum ACR-16 N-AChRs were expressed in Xenopus laevis oocytes as previously described. Briefly, Xenopus laevis defolliculated oocytes were obtained from Ecocyte Bioscience (Germany). Oocytes were micro-injected with 36 nL of cRNA mixes containing 50 ng/µL of each cRNA encoding subunits of interest and three H. contortus ancillary factors (Hco-RIC-3.1, Hco-UNC-50 and Hco-UNC-74). After 3–4 days of incubation, the oocytes were assayed under voltage clamp at −60 mV, and electrophysiological recordings were performed as described previously. The carvacrol concentration-dependent inhibition of acetylcholine current response was assessed for Parascaris- and Asu-ACR-16 channels with the protocol described by Zheng et al..
(§2) The results of the contraction assay are expressed as means ± S.E. in grams (g) of tension. […] GraphPad Prism® Software (San Diego, CA, USA) was used to estimate the constants EC50 and nH by non-linear regression for each preparation. We determined the mean contraction responses to each concentration of acetylcholine. Whole cell current electrophysiology responses were analyzed using the pCLAMP 10.4 package (Molecular Devices). […] One-way analysis of variance (ANOVA) was applied for the comparison of the differences between the EC50 value and the maximal effect (Rmax). Differences were considered significant when the p value was < 0.05. The statistical analysis was conducted using GraphPad Prism® software (San Diego, CA, USA), while all values are expressed as mean ± standard error (S.E.).

[2] = molecular target: Parascaris sp. ACR-26/27 M-AChR (Parascaris equorum, UniProt A0A0U2ES47+A0A0U2ES58); experiment: Two-electrode voltage-clamp on Parascaris sp. ACR-26/27 M-AChR expressed in Xenopus laevis oocytes; assay type: cell-based
Method: as §1, §2

[3] = system: Parascaris sp. muscle flap; experiment: Parascaris sp. body muscle flap isometric contraction assay
Method: For the contraction assay, adult female Parascaris sp. worms were collected weekly from the slaughterhouse at Vrčin, Belgrade, Serbia. Worms were maintained in Locke’s solution, composition (mM): NaCl 155, KCl 5, CaCl2 2, NaHCO3 1.5 and glucose 5, at a temperature of 32 °C. The Locke’s solution was changed twice daily, and each batch of worms was used within 2 days of collection. Parascaris muscle flaps for the contractions were prepared by dissecting the anterior part of the worm, 3–4 cm caudal to the head (Figure 1b). Each flap (always the same length of 1 cm) was monitored isometrically by attaching a force transducer in an experimental bath maintained at 37 °C, containing 20 mL Ascaris Perienteric Fluid Ringer/APF Ringer (mM: NaCl, 23; Na-acetate, 110; KCl, 24; CaCl2, 6; MgCl2, 5; glucose, 11; HEPES, 5; pH 7.6) and bubbled with room air. After dissection, the preparations were allowed to equilibrate for 15 min under an initial tension of 1.5 g. […] Responses for each concentration were expressed in grams of tension (g), produced by each individual flap preparation. The effect of carvacrol (300 μM) on the acetylcholine dose–response plots was determined. Contractions were monitored on a PC using a BioSmart interface and eLAB software (ElUnit, Belgrade, Serbia). The system allows real-time recording, display and analysis of experimental data. Sigmoid dose–response curves for each individual flap preparation at each concentration of the antagonist were described by the Hill equation.
as §2

A. suum ACR-16 N-AChR = molecular target: T1, A. suum ACR-16 N-AChR (Ascaris suum, UniProt F1KYJ9); experiment: cell-based
T1 construct: expressed in transfected cells; host or cells: Xenopus laevis oocytes (cRNA micro-injection)
T1 sequence (F1KYJ9 1-504): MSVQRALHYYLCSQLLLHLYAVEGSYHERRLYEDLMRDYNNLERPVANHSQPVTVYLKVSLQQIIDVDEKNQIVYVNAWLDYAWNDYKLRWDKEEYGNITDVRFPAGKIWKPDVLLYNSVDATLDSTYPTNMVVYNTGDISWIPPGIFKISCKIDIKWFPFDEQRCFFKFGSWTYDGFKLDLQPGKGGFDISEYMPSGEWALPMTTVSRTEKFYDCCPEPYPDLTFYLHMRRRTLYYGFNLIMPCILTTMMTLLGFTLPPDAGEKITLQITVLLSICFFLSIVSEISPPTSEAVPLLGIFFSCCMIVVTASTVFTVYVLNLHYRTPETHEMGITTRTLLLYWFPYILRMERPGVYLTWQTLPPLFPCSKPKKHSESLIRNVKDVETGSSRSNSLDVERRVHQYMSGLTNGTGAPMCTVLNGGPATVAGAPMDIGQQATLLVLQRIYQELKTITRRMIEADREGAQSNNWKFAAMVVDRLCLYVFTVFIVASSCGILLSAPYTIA
Method: as §1, §2

[4] = system: A. suum innervated muscle strips; details: 300 µM of carvacrol; cited from earlier work

Parascaris sp. ACR-16 N-AChR, sequence (A0A3S9VMQ8 entry or part of it): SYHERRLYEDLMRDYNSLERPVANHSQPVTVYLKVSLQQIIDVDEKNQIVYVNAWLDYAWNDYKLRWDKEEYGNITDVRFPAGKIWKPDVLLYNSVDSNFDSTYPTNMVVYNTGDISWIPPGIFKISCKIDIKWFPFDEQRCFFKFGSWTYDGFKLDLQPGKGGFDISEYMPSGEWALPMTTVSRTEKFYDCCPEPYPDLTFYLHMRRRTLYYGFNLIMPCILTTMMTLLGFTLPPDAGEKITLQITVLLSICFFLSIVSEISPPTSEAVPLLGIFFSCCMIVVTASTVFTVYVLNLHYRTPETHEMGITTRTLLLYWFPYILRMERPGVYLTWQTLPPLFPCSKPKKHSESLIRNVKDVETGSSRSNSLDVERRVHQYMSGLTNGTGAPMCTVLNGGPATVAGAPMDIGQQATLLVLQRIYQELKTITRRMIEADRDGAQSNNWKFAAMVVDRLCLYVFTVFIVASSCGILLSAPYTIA
Parascaris sp. ACR-26/27 M-AChR, sequence (A0A0U2ES58 entry or part of it): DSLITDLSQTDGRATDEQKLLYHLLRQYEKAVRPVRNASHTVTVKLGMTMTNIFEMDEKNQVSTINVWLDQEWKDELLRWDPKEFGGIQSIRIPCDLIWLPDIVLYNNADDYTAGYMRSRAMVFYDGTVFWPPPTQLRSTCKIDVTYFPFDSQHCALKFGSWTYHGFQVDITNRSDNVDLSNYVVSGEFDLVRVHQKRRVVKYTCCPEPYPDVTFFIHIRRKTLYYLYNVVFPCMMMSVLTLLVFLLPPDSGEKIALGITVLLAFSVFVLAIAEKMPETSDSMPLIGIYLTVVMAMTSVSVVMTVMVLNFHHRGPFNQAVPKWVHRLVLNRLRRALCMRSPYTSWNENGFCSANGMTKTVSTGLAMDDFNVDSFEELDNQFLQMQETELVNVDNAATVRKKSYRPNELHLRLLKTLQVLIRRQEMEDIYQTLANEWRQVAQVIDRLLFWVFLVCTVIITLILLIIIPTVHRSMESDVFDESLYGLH
Parascaris sp. ACR-26/27 M-AChR, sequence (A0A0U2ES47 entry or part of it): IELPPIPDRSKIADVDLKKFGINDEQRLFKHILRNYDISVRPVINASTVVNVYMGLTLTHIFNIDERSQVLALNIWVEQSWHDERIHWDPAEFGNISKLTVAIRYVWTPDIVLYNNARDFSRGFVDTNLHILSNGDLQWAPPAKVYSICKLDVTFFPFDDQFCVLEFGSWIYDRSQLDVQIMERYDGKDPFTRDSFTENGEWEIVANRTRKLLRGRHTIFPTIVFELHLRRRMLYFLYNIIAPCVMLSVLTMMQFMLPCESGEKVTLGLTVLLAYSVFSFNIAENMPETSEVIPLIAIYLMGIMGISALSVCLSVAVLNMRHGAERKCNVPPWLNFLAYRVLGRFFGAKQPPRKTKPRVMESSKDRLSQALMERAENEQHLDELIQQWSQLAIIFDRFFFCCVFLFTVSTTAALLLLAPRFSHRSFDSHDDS

CC(=O)OCC[N+](C)(C)C [ACh, Acetylcholine chloride]
Hill coefficient of ACh concentration-response ([1]; 100 µM carvacrol): 2.0 ± 0.3 | Hill coefficient of ACh concentration-response ([1]; 300 µM carvacrol): 2.1 ± 0.4 | EC50 ([1]; ACh EC50, presence of 100 µM carvacrol, n = 6): 5.9 µM | EC50 ([1]; ACh EC50, presence of 300 µM carvacrol, n = 10): 8.2 µM | EC50 ([1]; ACh EC50, without carvacrol, n = 6): 6.5 µM | EC50 ([1]; ACh log EC50, presence of 100 µM carvacrol, n = 6): 5.92 µM | EC50 ([1]; ACh log EC50, presence of 300 µM carvacrol, n = 10): 8.18 µM | Hill coefficient of ACh concentration-response ([1]; without carvacrol): 2.0 ± 0.2 | ACh log EC50 ([1]; without carvacrol, log of EC50 in µM, n = 6): 0.811 ± 0.028 | EC50 ([2]; ACh EC50, absence of carvacrol, normalized to 100 µM ACh, n = 6): 25 µM | EC50 ([2]; ACh EC50, continued perfusion of 100 µM carvacrol, n = 5): 12.2 µM | EC50 ([2]; ACh EC50, continued perfusion of 300 µM carvacrol, n = 6): 6.6 µM | EC50 ([2]; ACh log EC50, absence of carvacrol, log of EC50 in µM, n = 6): 25 µM | EC50 ([2]; ACh log EC50, continued perfusion of 100 µM carvacrol, n = 5): 12.2 µM | EC50 ([2]; ACh log EC50, continued perfusion of 300 µM carvacrol, n = 6): 6.56 µM | Hill coefficient of ACh concentration-response ([2]; absence of carvacrol): 1.4 ± 0.1 | Hill coefficient of ACh concentration-response ([2]; presence of 100 µM carvacrol): 1.7 ± 0.4 | Hill coefficient of ACh concentration-response ([2]; presence of 300 µM carvacrol): 1.5 ± 0.3 | maximal effect (Rmax), contraction ([3]; obtained with 100 µM ACh): 1.19 ± 0.051 g | EC50 ([3]; read-out: EC50 of ACh, muscle flap contraction, control, no carvacrol, n = 5): 6.08 µM | EC50 ([3]; read-out: log EC50 of ACh, muscle flap contraction (converted)): 6.03 µM

Cc1ccc(C(C)C)cc1O [carvacrol]
IC50 [1]: 177.8 ± 1.1 µM | mode of action [1]: non-competitive antagonist | agonist effect ([1]; 300 µM carvacrol): no agonist effect | reduction of ACh maximal response amplitude ([1]; presence of 100 µM carvacrol): 2 fold | reduction of ACh maximal response amplitude ([1]; presence of 300 µM carvacrol): 3 fold | mode of action [2]: non-competitive antagonist | agonist action ([2]; carvacrol perfused alone): no agonist action | effect on efficacy of ACh activation (Imax) ([2]; perfusion of 100 and 300 µM carvacrol, p < 0.0001): significantly reduced | IC50 ([2]; read-out: IC50, inhibition of ACh-elicited current): 169.3 ± 1 µM | inhibitory effect after removal of carvacrol from experimental baths (washing) ([3]; 300 µM carvacrol): remained even after removal | effect on contractions induced by ACh ([3]; 300 µM carvacrol, ACh 1 to 100 µM): completely abolished; also recorded: fully and irreversibly abolished; also recorded: full inhibition | IC50 (A. suum ACR-16 N-AChR): 36.4 ± 1.3 µM | mode of action (A. suum ACR-16 N-AChR): non-competitive antagonist | higher affinity for the A. suum N-AChR over the Parascaris sp. N-AChR (A. suum ACR-16 N-AChR; from concentration-inhibition data): approximately 5 fold | inhibition of the ACh contractile effect [4]: ≤ 49%
